≈ marks a conversion by molar mass, not a printed value. Where “and” joins values, the source holds several entries; their conditions need not be identical. Equal entries are not always repeated. Structures can show the parent of a compound that is named as a salt. Where two headings read alike, the source gives them in different places. Marks after values point to notes of the source that are not given here.

The nature of series [1]: pH values of samples used in Microtox test. It is filed as physicochemical. The following applies: sample used in Microtox test.
In series [2] the test system is Aliivibrio fischeri (strain NRRL B-11177). The series can be described thus: modified Microtox Basic Solid Phase Test (bioluminescence inhibition). The conditions noted are these: for EC50: Aliivibrio fischeri. It is filed as cell-based. How it is done:
(§1) The bioluminescent marine bacterium Aliivibrio fischeri (strain NRRL B-11177) was used to evaluate the acute toxicity of individual excipients, as well as the API–excipient and excipient–excipient mixtures (Figure 1). The inhibition of bioluminescence was measured using the Microtox® Model 500 Analyzer (Modern Water Inc., New Castle, DE, USA). The modified Microtox® Basic Solid Phase Test protocol was applied, which was described in detail in our previous work; a scheme illustrating the course of the ecotoxicological study is shown in Figure 4. The bioluminescence inhibition of A. fischeri was measured after 5, 15, and 30 min of exposure of the bacterium to each sample and then compared with the light output of a control sample. […] Software™.

Test in series [3]: as above
It is filed as cell-based, Aliivibrio fischeri. The following applies: Aliivibrio fischeri, Toxicity Category (Based on EC50, 30 min). How it is done: as §1

Series [4] relates to Aliivibrio fischeri (strain NRRL B-11177). Also on record: method as in earlier work. The following applies: ref [10] (Turek et al., J. Haz. Mat. 399 (2020) 122839), cited from earlier work; for EC50 5 min: 5 min of incubation.
Series [5] has as its system various aquatic organisms. The following applies: ref [16, 17, 18, 19, 20]; cited from earlier work.
Where [6] appears, read: NRRLB11177, 5 min, read-out: EC50 5 min, 5 min of exposure, 95% confidence interval in brackets.
Where [7] appears, read: NRRLB11177, 0.25 h, 15 min of exposure, 95% confidence interval in brackets, read-out: EC50 15 min.
Setting [8] is: NRRLB11177, 0.5 h, 30 min of exposure, 95% confidence interval in brackets, read-out: EC50 30 min.
Where [9] appears, read: 30 min of exposure, 95% confidence interval in brackets.
Setting [10] is: 5 min of exposure, 95% confidence interval in brackets.
Setting [11] is: 15 min of exposure, 95% confidence interval in brackets.

The EC50 is the concentration that produces a half-maximal response. Consider `OC[C@@H](O)[C@@H](O)[C@H](O)[C@H](O)CO` [Mannitol], for which, in series [1], the pH was found to be 6.390. The values for the EC50 in series [2] (setting [6]), in series [2] (setting [7]) and in series [2] (setting [8]) were 12600 µg/mL (≈ 69000 µM), 5400 µg/mL (≈ 29700 µM) and 4250 µg/mL (≈ 23300 µM), respectively. The compound further displayed an EC50 at 30 min in series [3] of more than 100 µg/mL.
With `CNC[C@H](O)[C@@H](O)[C@H](O)[C@H](O)CO` [Meglumine], in series [1], the pH was 10.830 and ~11. In addition, the “EC50 30 min” value in series [2] (setting [9]) is 18.05 (7.237–45.02) 0.7516 mg/L. For the same compound, the concentration giving a half-maximal response (EC50) in series [2] (setting [6]) was 28.6 µg/mL; in series [2] (setting [7]) it was 19.7 µg/mL; in series [2] (setting [8]), 10 to 100 µg/mL. In addition, the EC50 at 30 min in series [3] lay in the range of 10 to 100 µg/mL.
Compound `OC[C@@H](O)[C@@H](O)[C@H](O)[C@@H](O)CO` [Sorbitol] yielded a pH in series [1] of 7.446. In series [2] (setting [10]), the “EC50 5 min” value is “Non-toxic in tested concentration, hormesis”. The “EC50 15 min” value in series [2] (setting [11]) is “Non-toxic in tested concentration, hormesis”. Moreover, the “EC50 30 min” value is “Non-toxic in tested concentration, hormesis” in series [2] (setting [9]) and “completely non-toxic at the tested concentration” in series [2] (30 min of exposure, 95% confidence interval in brackets, listed as sorbitol). In addition, in series [3], the EC50 at 30 min is more than 100 µg/mL.
Consider `OC[C@H]1O[C@@H](O[C@H]2[C@H](O)[C@@H](O)[C@@H](O)O[C@@H]2CO)[C@H](O)[C@@H](O)[C@H]1O` [Lactose monohydrate], for which the pH in series [1] was 5.113. The EC50 in series [2] (setting [6]) was 11700 µg/mL; in series [2] (setting [7]), 14000 µg/mL; in series [2] (NRRLB11177, 0.5 h, 30 min of exposure, EC50 calculated from extrapolated data, read-out: EC50 30 min) it was 16400 µg/mL. The compound further returned an EC50 at 30 min in series [3] of more than 100 µg/mL.
The compound Magnesium carbonate (heavy) displayed a pH in series [1] of 10.257. Moreover, in series [2] (setting [10]), the “EC50 5 min” value was 109.8 (55.61–216.6) 0.9360 mg/L. In addition, the “EC50 15 min” value in series [2] (setting [11]) is 86.42 (58.99–126.6) 0.9678 mg/L. The “EC50 30 min” value in series [2] (setting [9]) is 65.60 (44.19–97.37) 0.9738 mg/L; in series [2] (30 min of exposure, 95% confidence interval in brackets, listed as magnesium carbonate), 10 to 100 mg/L. Further, the “Toxicity Category (Based on EC50, 30 min)” value in series [2] (GHS acute toxicity categories [11]) is on record as “III ((III) harmful, 10 < EC50 < 100 mg/L)”.
As to `CCCCC(=O)N(Cc1ccc(-c2ccccc2-c2nnn[nH]2)cc1)[C@H](C(=O)O)C(C)C` [VAL, Valsartan, reference compound], in series [1], the pH is 4.970. In series [4], the “EC50 5 min” value is 143.20 µg/mL (≈ 329 µM) and the “EC50 15 min” value was 234.83 µg/mL (≈ 539 µM). Besides, the 50% effective concentration (EC50) in series [2] (setting [8]) was determined as 150 µg/mL (≈ 346 µM).
For the compound `CCCCCCCCCCCCCCCCCCOC(=O)/C=C/C(=O)[O-].[Na+]` [Sodium stearyl fumarate], in series [2] (5 min, value calculated using two points, 95% confidence interval and R^2 could not be determined), the “EC50 5 min” value is 56,456 ^[b] mg/L. The “EC50 15 min” value in series [2] (15 min of exposure, EC50 calculated from extrapolated data) is 12,815 ^[a] (38.84–4,457,999) 0.9221 mg/L. Further, the “EC50 30 min” value in series [2] (30 min of exposure, EC50 calculated from extrapolated data) is 80,534 ^[a] (2479–2,616,211) 0.8896 mg/L.
In series [1], `CCCCc1nc(Cl)c(CO)n1Cc1ccc(-c2ccccc2-c2nn[nH]n2)cc1` [LOS-K, Losartan potassium, reference compound] displayed a pH of 7.750. Further, in series [4], the “EC50 5 min” value is 583.88 µg/mL and the “EC50 15 min” value was 659.02 µg/mL. Moreover, the concentration for a half-maximal effect (EC50) in series [2] (setting [8]) was 277 µg/mL.
The compound `CCCCCCCCCCCCOS(=O)(=O)O` [Sodium lauryl sulfate (SLS), Sodium lauryl sulfate] came in with a pH in series [1] of 6.779. In addition, the “LC50 (lethal concentration)” value in series [5] is 1 to 13.9 µg/mL. Besides, the “EC50 30 min” value in series [2] (setting [9]) is given as 0.5544 (0.1138–2.702) 0.6931 mg/L. Also, the EC50 is 1.37 µg/mL in series [2] (setting [6]), 0.8 µg/mL in series [2] (setting [7]) and less than 1 µg/mL in series [2] (setting [8]). In series [3], this compound showed a concentration for a half-maximal effect (EC50) at 30 min of less than 1 µg/mL.
With `CCCc1nc2c(C)cc(-c3nc4ccccc4n3C)cc2n1Cc1ccc(-c2ccccc2C(=O)O)cc1` [TEL, Telmisartan, reference compound], the pH in series [1] worked out at 8.036. Besides, in series [4], the “EC50 5 min” value is 196.52 µg/mL (≈ 382 µM) and the “EC50 15 min” value is 99.70 µg/mL (≈ 194 µM). In series [2] (setting [8]), the concentration for a half-maximal effect (EC50) was found to be 77.3 µg/mL (≈ 150 µM).
